Assays:
Test in all cases: Kirby-Bauer agar disk diffusion
N. gonorrhoeae = assay type: cell-based, Neisseria gonorrhoeae; conditions: Table 1; 6-mm disks, 20 μg test compound, 24 h, triplicate; β-lactamase positive
Protocol: In this study, a selection of N-methylthio-substituted β-lactams are examined for antimicrobial activity by the Kirby-Bauer disk diffusion method on agar plates. A variety of common Gram-positive and Gram-negative bacteria are tested, including clinical isolates of methicillin-resistant Staphylococcus aureus (MRSA).
Compound susceptibility measurements are obtained from agar disk diffusion experiments using 6-mm air-dried disks impregnated with 20 μg of the test compound. The values correspond to the average diameters in mm (triplicate experiments) for the zone of growth inhibition observed after 24 h. Staphylococcus aureus (ATCC 25923) and β-lactamase-producing strains of methicillin-resistant Staphylococcus aureus (labeled as MRSA USF652-659) are obtained from Lakeland Regional Medical Center, Lakeland, Fla. Staphylococcus epidermidis, Staphylococcus simulans, Staphylococcus simulans, and Microcossus luteus are clinical isolates from University of South Florida Medical Clinic. Nieserria gonnorhoeae (β-lactamase positive) is obtained from the Tampa Branch State Laboratory. PenG is penicillin G (potassium salt). Table 1 provides the zones of growth inhibition that are observed after 24 hours using the lactams of FIGS. 1A-1I (designated A-I, respectively).

MRSA USF658 = assay type: cell-based, Staphylococcus aureus; conditions: Table 1; 6-mm disks, 20 μg test compound, 24 h, triplicate
Outline: (§1)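 Zones of inhibition, in mm and averaged over three runs, are measured after 24 h around 6-mm disks dosed with 20 μg compound on agar lawns of β-lactamase-producing MRSA.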

MRSA USF652 = assay type: cell-based, Staphylococcus aureus; conditions: Table 1; 6-mm disks, 20 μg test compound, 24 h, triplicate
Outline: as §1

MRSA USF657 = assay type: cell-based, Staphylococcus aureus; conditions: Table 1; 6-mm disks, 20 μg test compound, 24 h, triplicate
Outline: as §1

MRSA USF654 = assay type: cell-based, Staphylococcus aureus; conditions: Table 1; 6-mm disks, 20 μg test compound, 24 h, triplicate
Outline: as §1

MRSA USF659 = assay type: cell-based, Staphylococcus aureus; conditions: Table 1; 6-mm disks, 20 μg test compound, 24 h, triplicate
Outline: as §1

MRSA USF655 = assay type: cell-based, Staphylococcus aureus; conditions: Table 1; 6-mm disks, 20 μg test compound, 24 h, triplicate
Outline: as §1

MRSA USF653 = assay type: cell-based, Staphylococcus aureus; conditions: Table 1; 6-mm disks, 20 μg test compound, 24 h, triplicate
Outline: as §1

MRSA USF656 = assay type: cell-based, Staphylococcus aureus; conditions: Table 1; 6-mm disks, 20 μg test compound, 24 h, triplicate
Outline: as §1

[1] = tested on: Staphylococcus epidermidis; assay type: cell-based; conditions: Table 1; 6-mm disks, 20 μg test compound, 24 h, triplicate
Outline: (§2)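 Agar disk diffusion used 6-mm air-dried disks carrying 20 μg of compound. Values are mean diameters (mm) of the growth-inhibition zone at 24 h, from triplicate experiments. S. epidermidis and S. simulans were clinical isolates.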

Micrococcus luteus = assay type: cell-based; conditions: Table 1; 6-mm disks, 20 μg test compound, 24 h, triplicate
Outline: as §2

[2] = tested on: Staphylococcus aureus (ATCC 25923); assay type: cell-based; conditions: Table 1; 6-mm disks, 20 μg test compound, 24 h, triplicate
Outline: as §2

S. simulans (ATCC 11631) = assay type: cell-based, Staphylococcus simulans; conditions: Table 1; 6-mm disks, 20 μg test compound, 24 h, triplicate
Outline: as §2

[3] = tested on: S. saprophyticus (ATCC 3552); assay type: cell-based, Staphylococcus saprophyticus; conditions: Table 1; 6-mm disks, 20 μg test compound, 24 h, triplicate
Outline: as §2

Structure (SMILES): COC1C(=O)N(SC)C1c1ccccc1 (racemic) [Lactam C]
- zone of growth inhibition, average diameter (N. gonorrhoeae): 14 mm
- zone of growth inhibition, average diameter (MRSA USF658): 26 mm
- zone of growth inhibition, average diameter (MRSA USF652): 30 mm
- zone of growth inhibition, average diameter (MRSA USF657): 27 mm
- zone of growth inhibition, average diameter (MRSA USF654): 26 mm
- zone of growth inhibition, average diameter (MRSA USF659): 24 mm
- zone of growth inhibition, average diameter (MRSA USF655): 25 mm
- zone of growth inhibition, average diameter (MRSA USF653): 30 mm
- zone of growth inhibition, average diameter (MRSA USF656): 28 mm
- zone of growth inhibition, average diameter [1]: 31 mm
- zone of growth inhibition, average diameter (Micrococcus luteus): 21 mm
- zone of growth inhibition, average diameter [2]: 25 mm
- zone of growth inhibition, average diameter (S. simulans (ATCC 11631)): 14 mm
- zone of growth inhibition, average diameter [3]: 22 mm

Structure (SMILES): COC1C(=O)N(SC)C1c1ccccc1C (racemic) [Lactam H]
- zone of growth inhibition, average diameter (N. gonorrhoeae): 12 mm
- zone of growth inhibition, average diameter (MRSA USF658): 22 mm
- zone of growth inhibition, average diameter (MRSA USF652): 23 mm
- zone of growth inhibition, average diameter (MRSA USF657): 23 mm
- zone of growth inhibition, average diameter (MRSA USF654): 23 mm
- zone of growth inhibition, average diameter (MRSA USF659): 20 mm
- zone of growth inhibition, average diameter (MRSA USF655): 23 mm
- zone of growth inhibition, average diameter (MRSA USF653): 27 mm
- zone of growth inhibition, average diameter (MRSA USF656): 25 mm
- zone of growth inhibition, average diameter [1]: 25 mm
- zone of growth inhibition, average diameter (Micrococcus luteus): 21 mm
- zone of growth inhibition, average diameter [2]: 23 mm
- zone of growth inhibition, average diameter (S. simulans (ATCC 11631)): 14 mm
- zone of growth inhibition, average diameter [3]: 15 mm

Structure (SMILES): COC1C(=O)N(SC)C1C#Cc1ccccc1 (racemic) [Lactam A]
- zone of growth inhibition, average diameter (N. gonorrhoeae): 13 mm
- zone of growth inhibition, average diameter (MRSA USF658): 27 mm
- zone of growth inhibition, average diameter (MRSA USF652): 31 mm
- zone of growth inhibition, average diameter (MRSA USF657): 30 mm
- zone of growth inhibition, average diameter (MRSA USF654): 28 mm
- zone of growth inhibition, average diameter (MRSA USF659): 25 mm
- zone of growth inhibition, average diameter (MRSA USF655): 29 mm
- zone of growth inhibition, average diameter (MRSA USF653): 30 mm
- zone of growth inhibition, average diameter (MRSA USF656): 30 mm
- zone of growth inhibition, average diameter [1]: 30 mm
- zone of growth inhibition, average diameter (Micrococcus luteus): 23 mm
- zone of growth inhibition, average diameter [2]: 27 mm
- zone of growth inhibition, average diameter (S. simulans (ATCC 11631)): 21 mm
- zone of growth inhibition, average diameter [3]: 22 mm
